# Laboratory results published in patent EP1818058A2, “TREATMENT OF MMP-MEDIATED DERMATOLOGICAL DISEASES WITH PEMIROLAST” (Astion Pharma A/S, priority 2006, dated 2007).
# Tests used:
# MMP-1 = target: T1, MMP-1 (Homo sapiens, UniProt P03956); test: MMP enzyme assay (fluorogenic Mca peptide substrate, MDS Pharma Services); assay type: biochemical; conditions: concentration giving 50 % inhibition; MMP-1 from Human rheumatoid synovial fibroblast; read-out: Concentration of Pemirolast
# T1 construct: The methods employ Human rheumatoid synovial fibroblast (MMP-1); endogenous in cells; host or cells: Human rheumatoid synovial fibroblast
# T1 sequence (P03956 100-469): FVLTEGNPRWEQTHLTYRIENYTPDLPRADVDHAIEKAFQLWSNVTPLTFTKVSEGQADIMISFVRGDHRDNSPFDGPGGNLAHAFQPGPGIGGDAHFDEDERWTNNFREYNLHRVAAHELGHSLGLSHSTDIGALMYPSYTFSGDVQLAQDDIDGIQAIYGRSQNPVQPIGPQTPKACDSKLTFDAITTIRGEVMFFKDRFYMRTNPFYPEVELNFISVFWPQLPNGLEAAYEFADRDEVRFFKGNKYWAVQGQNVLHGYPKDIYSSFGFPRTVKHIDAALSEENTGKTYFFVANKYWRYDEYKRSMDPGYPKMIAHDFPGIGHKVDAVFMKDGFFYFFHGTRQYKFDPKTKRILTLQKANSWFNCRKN
# Experimental: (§1) The inhibitory effect of Pemirolast on human MMP's and cytokines were determined by enzyme assays carried out by MDS Pharma Services.
# (§2) The inhibition of MMP's can be determined according to the test methods described by Knight CG, Willenbrock F, Murphy G (A novel coumarin-labelled peptide for sensitive continuous assays of the matrix metalloproteinases, FEBS Lett. 1992 Jan 27;296(3):263-6); Johnson LL, Dyer R, Hupe DJ (Matrix metalloproteinases, Curr Opin Chem Biol. 1998 Aug;2(4):466-71); and Olson MW, Gervasi DC, Mobashery S, Fridman R (Kinetic analysis of the binding of human matrix metalloproteinase-2 and -9 to tissue inhibitor of metalloproteinase (TIMP)-1 and TIMP-2, J Biol Chem. 1997 Nov 21;272(47):29975-83). The methods employ Human rheumatoid synovial fibroblast (MMP-1) and Human recombinant (MMP-2 and MMP-3) and Human recombinant (E.coli) (MMP-7) as the MMP source. The substrate is Mca-Pro-Leu-Gly-Leu-Dpa-Ala-Arg-NH2. The enzymatic reaction is based on the conversion of Mca-Pro-Leu-Gly-Leu-Dpa-Ala-Arg to Mca-Pro-Leu-Gly + Leu-Dpa-Ala-Arg-NH2, where Mca-Pro-Leu-Gly is quantified using spectrofluorimetric quantitation. As reference compounds are employed TIMP-1 and TIMP-2. Such methods are commercially available at MDS Pharma Services.
# MMP-7 = target: T2, MMP-7 (Homo sapiens, UniProt P09237); test: as above; assay type: biochemical; conditions: concentration giving 50 % inhibition; Human recombinant (E.coli) MMP-7; read-out: Concentration of Pemirolast
# T2 construct: host or cells: E. coli
# T2 sequence (P09237 95-267): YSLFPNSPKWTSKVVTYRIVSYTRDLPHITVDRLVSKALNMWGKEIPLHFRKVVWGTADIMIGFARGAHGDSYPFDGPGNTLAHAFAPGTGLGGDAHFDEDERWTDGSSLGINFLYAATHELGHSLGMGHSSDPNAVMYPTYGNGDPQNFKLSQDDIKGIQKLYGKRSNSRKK
# Experimental: as §1, §2
# MMP-2 = target: T3, MMP-2 (Homo sapiens, UniProt P08253); test: as above; assay type: biochemical; conditions: concentration giving 50 % inhibition; Human recombinant MMP-2; read-out: Concentration of Pemirolast
# T3 sequence (P08253 110-660): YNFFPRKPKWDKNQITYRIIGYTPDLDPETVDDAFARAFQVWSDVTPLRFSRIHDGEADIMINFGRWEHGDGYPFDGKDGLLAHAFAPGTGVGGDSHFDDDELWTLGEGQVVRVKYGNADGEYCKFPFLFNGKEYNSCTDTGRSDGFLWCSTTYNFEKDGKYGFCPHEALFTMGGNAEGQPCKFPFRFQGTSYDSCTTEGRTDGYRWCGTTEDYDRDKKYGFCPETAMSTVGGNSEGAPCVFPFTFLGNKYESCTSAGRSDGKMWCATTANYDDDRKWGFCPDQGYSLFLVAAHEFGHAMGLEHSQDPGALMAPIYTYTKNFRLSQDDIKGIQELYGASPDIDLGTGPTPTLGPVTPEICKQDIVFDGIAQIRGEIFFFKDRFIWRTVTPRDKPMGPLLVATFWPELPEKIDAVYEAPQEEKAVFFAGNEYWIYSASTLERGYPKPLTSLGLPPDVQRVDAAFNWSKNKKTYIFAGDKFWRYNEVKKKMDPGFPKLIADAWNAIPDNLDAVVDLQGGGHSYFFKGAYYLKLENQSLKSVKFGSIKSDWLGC
# Experimental: as §1, §2
# MMP-3 = MMP-3 (Homo sapiens, UniProt P08254); test: as above; assay type: biochemical; conditions: concentration giving 50 % inhibition; Human recombinant MMP-3; read-out: Concentration of Pemirolast
# Experimental: as §1, §2
# TNF-α = test: Cytokine production, LPS induced human PBMC; assay type: cell-based; conditions: concentration giving 50 % inhibition, read-out: Concentration of Pemirolast
# Experimental: (§3) The inhibition of Pemirolast on cytokine production was determined using the assay "LPS induced human PBMC".
# IL-1α = test: Cytokine production, LPS induced human PBMC; assay type: cell-based; conditions: statement in words only, no value given
# Experimental: as §3
# acne vulgaris = test: Case of treatment of acne vulgaris; assay type: in vivo, person
# From the text: A person was suffering from acne vulgaris characterised by comedones and some inflammatory lesions. They had previously regularly used a 5% benzoyl peroxide cream to treat the condition. During a flare up of the condition they applied a 5.0% aqueous solution of Pemirolast (potassium salt) once daily for four weeks to the areas affected. […] The treatment was followed and assessed by a physician.
# [1] = system: arachidonic acid-induced ear-inflammation; test: Arachidonic acid-induced ear-inflammation test in mice; assay type: in vivo, female BALB/cA mice; conditions: intraperitoneally 30 minutes before arachidonic acid on the right ear
# Experimental: The anti-inflammatory potential of Pemirolast can be tested in "arachidonic acid-induced ear-inflammation test in mice", a commonly employed method for screening and evaluation of antiinflammatory drugs. Dexamethasone was employed as reference compound.
# The study can be performed in female BALB/cA mice from M & B A/S, DK-8680 Ry. The test substances (various concentration of Pemirolast dissolved in aqueous solutions) and the reference compound are administered intraperitoneally in volumes of 20 ml per kg body weight 30 minutes before application of arachidonic acid to the ear. All groups are then treated with 20 µl arachidonic acid, 100 mg/ml in acetone, on the right ear. One hour after the application of arachidonic acid the mice are sacrificed, the ears cut from the tip with a punch biopsy knife (8 mm diameter) and weighed. Mean weights and standard deviations are calculated. Relative ear oedema is assessed as the weight difference between right and left ear of each mouse expressed as percent of the left ear. Percent inhibition of the relative ear oedema compared with the vehicle treated groups is calculated for the test substance and reference compound treated groups. […]
# [2] = person, 5.0% aqueous solution of Pemirolast (potassium salt) once daily for four weeks on affected areas
# MMP-3, sequence (P08254 100-477): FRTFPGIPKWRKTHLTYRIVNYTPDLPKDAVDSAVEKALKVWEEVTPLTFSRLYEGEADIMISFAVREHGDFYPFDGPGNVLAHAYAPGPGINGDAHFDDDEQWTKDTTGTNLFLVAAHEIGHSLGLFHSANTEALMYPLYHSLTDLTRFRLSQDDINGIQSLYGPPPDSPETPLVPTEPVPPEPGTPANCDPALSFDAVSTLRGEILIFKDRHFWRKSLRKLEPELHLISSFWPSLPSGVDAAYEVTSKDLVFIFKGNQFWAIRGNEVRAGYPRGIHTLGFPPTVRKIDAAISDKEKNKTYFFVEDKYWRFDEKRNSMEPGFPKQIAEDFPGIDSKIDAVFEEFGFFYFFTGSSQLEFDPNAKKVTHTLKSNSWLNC
smiles,measurement,setting,value
"Cc1cccn2c(=O)c(-c3nnn[nH]3)cnc12 [Pemirolast, 9-methyl-3-(1H-tetrazol-5-yl)-4H-pyrido[1,2-a]pyrimidin-4-one]",IC50,MMP-1,18 µM
same,IC50,MMP-7,32 µM
same,IC50,MMP-2,25 µM
same,IC50,MMP-3,32 µM
same,IC50,TNF-α,100 µM
same,inhibition of IL-1α,IL-1α,inhibits
same,inflamed area surrounding the lesion,acne vulgaris; [2],recessed without any noticeable scarring
same,inflammatory lesions,acne vulgaris; [2],completely recessed
same,inflammatory reaction in the arachidionic acid treated ear,[1],significantly prevented the inflammatory reaction
O=C(OOC(=O)c1ccccc1)c1ccccc1 [benzoyl peroxide],reddened inflamed area,"acne vulgaris; same patient, usual previous treatment with 5% benzoyl peroxide cream",did not remove the reddened inflamed area
